In patent publication US11478460B2, “Diaryl substituted 6,5-fused ring compounds as C5aR inhibitors” (CHEMOCENTRYX, INC., priority 2017, dated 2022) one finds IC50 data, which are given here for 58 compounds.

For this test, the target named is C5aR (Homo sapiens (Human), UniProt P21730). The experiment in a line: Chemotaxis assay using U937 cells (C5aR mediated migration). The format is cell-based. The conditions noted are these: read-out: Mig IC50. The procedure, abridged: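 U937 monocytic cells, pretreated overnight with 0.5 mM cyclic AMP, placed at 100,000 cells in the upper well above 5 μm polycarbonate filters. Lower well held 0.03 nM C5a plus compound in HBSS/1% FBS; after 1.5 h at 37° C migrated cells counted directly or by CyQuant, giving IC50.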
Chain of C5aR (P21730 whole entry): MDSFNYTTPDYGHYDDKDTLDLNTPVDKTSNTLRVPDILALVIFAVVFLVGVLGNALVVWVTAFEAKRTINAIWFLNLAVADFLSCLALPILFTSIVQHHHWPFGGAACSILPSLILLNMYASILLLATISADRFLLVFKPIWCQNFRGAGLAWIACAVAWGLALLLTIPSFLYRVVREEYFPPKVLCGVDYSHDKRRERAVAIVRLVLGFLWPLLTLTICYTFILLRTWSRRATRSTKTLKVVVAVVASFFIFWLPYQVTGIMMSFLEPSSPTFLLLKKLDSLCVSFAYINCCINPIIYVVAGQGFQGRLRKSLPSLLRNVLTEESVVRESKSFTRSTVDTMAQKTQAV

As for `Cc1cccc(OCC(C)C)c1-n1nc2c(c1-c1ccc(NC(N)=O)cc1)CN(CC(C)(C)C)CC2(C)C` [Example 1.260], the IC50 (usually the concentration at which inhibition is half-maximal) is greater than 500 nM.
The result for `Cc1cc(C(F)(F)F)cnc1N1CCc2nn(-c3c(C)cccc3OCC(C)C)c(-c3ccc(NC(N)=O)cc3)c2C1` [Example 1.340] reads 5 to 50 nM; that for `CCc1cccc(CC)c1-n1nc2c(c1-c1cc(F)c(NC(N)=O)cc1F)CN(C(C(=O)OC)c1ccccc1)CC2` (stereo not shown) [Example 1.148], no more than 5 nM; that for `Cc1cccc(OCC(C)C)c1-n1nc2c(c1-c1cc(F)c(NC(N)=O)cc1Cl)CN(c1ncc(C(F)(F)F)cc1F)CC2` [Example 1.217], no more than 5 nM.
The result for `CCc1cccc(CC)c1-n1nc2c(c1-c1cc(F)c(NC(N)=O)cc1F)CN(C(C)(C)c1cccc(F)c1)CC2` [Example 1.195] reads no more than 5 nM; that for `Cc1cccc(OCC(C)C)c1-n1nc2c(c1-c1ccc(NC(N)=O)c(F)c1)CN(CC1CCOC1)CC2` (stereo not shown) [Example 1.248], 50 to 500 nM; that for `CCc1cccc(CC)c1-n1nc2c(c1-c1ccc(NC(N)=O)cc1)CN(Cc1ccc(Cl)cc1C(F)(F)F)CC2` [Example 1.278], 5 to 50 nM.
`Cc1cccc(C)c1-n1nc2c(c1-c1ccc(C(N)=O)cc1)CN(C(=O)OC(C)(C)C)CC2` [Example 1.420]: the IC50 is greater than 500 nM.
The result for `Cc1cccc(OCC(C)C)c1-n1nc2c(c1-c1cc(F)c(NC(N)=O)cc1F)CN(c1ncc(Cl)cc1Cl)CC2` [Example 1.210] reads no more than 5 nM.
The result for `CCc1cccc(CC)c1-n1nc2c(c1-c1cc(F)c(NC(N)=O)cc1F)CN(Cc1ccccc1Cl)C(C)(C)C2` [Example 1.007] reads no more than 5 nM; that for `CCc1cccc(C)c1-n1nc2c(c1-c1ccc(NC(N)=O)cc1)CN(c1cc(C(C)(C)C)ccc1C)CC2` [Example 1.380], 5 to 50 nM; that for `CCc1cccc(CC)c1-n1nc2c(c1-c1cc(F)c(NC(N)=O)cc1F)CN(C(=O)c1ccnn1C)C(C)(C)C2` [Example 1.005], 5 to 50 nM.
The result for `COc1cc(NC(N)=O)c(F)cc1-c1c2c(nn1-c1c(C)cccc1C)CCN(c1ccc(C(F)(F)F)cc1F)C2` [Example 1.111] reads no more than 5 nM.
On to `CCc1cccc(CC)c1-n1nc2c(c1-c1cc(F)c(NC(N)=O)cc1F)CN(C(C)(C)c1ccc(F)cc1)CC2` [Example 1.192], for which the IC50 is no more than 5 nM.
For `Cc1cc(C(N)=O)ccc1-c1c2c(nn1-c1c(C)cccc1OCC(C)C)CCN(c1cc(C(C)(C)C)ccc1C)C2` [Example 1.443] the value was 50 to 500 nM; for `Cc1cccc(OCC(C)C)c1-n1nc2c(c1-c1ccc(NC(N)=O)cc1)CN(CC(C)(C(F)(F)F)C(F)(F)F)CC2` [Example 1.344], no more than 5 nM.
As to `Cc1cc(NC(N)=O)ccc1-c1c2c(nn1-c1c(C)cccc1OCC(C)C)CCN(c1cc(C(C)(C)C)ccc1C)C2` [Example 1.441], the IC50 is no more than 5 nM.
For `Cc1cccc(C)c1-n1nc2c(c1-c1cc(F)c(NC(N)=O)cc1F)CN(C(c1ccccc1)C(C)(C)O)CC2` (stereo not shown) [Example 1.085] the value was 5 to 50 nM.
The result for `Cc1cccc(C)c1-n1nc2c(c1-c1cc(F)c(NC(N)=O)cc1F)CN(c1ccc(OC(F)(F)F)cc1F)CC2` [Example 1.099] reads no more than 5 nM; that for `CCc1cccc(CC)c1-n1nc2c(c1-c1cc(F)c(NC(N)=O)cc1F)CN(C(C)(C)c1ccc(OC)cc1)CC2` [Example 1.157], no more than 5 nM; that for `Cc1cccc(OCC(C)C)c1-n1nc2c(c1-c1ccc(NC(N)=O)cc1)CN(C(C)c1cccc(C(F)(F)F)c1)CC2` (stereo not shown) [Example 1.319], no more than 5 nM.
The result for `Cc1ccc(CN2CCc3nn(-c4c(C)cccc4OCC(C)C)c(-c4ccc(NC(N)=O)cc4)c3C2)c(F)c1` [Example 1.308] reads no more than 5 nM.
`Cc1cccc(C)c1-n1nc2c(c1-c1ccc(N)cc1)CN(c1ccccc1C(C)(C)C)CC2` [Example 1.471]: the IC50 is 5 to 50 nM.
Regarding `COc1cccc(C)c1-n1nc2c(c1-c1cc(F)c(NC(N)=O)cc1F)CN(c1ncc(Cl)cc1Cl)CC2` [Example 1.184], the IC50 is no more than 5 nM.
In the case of `CC[C@@H](c1ccccc1)N1CCc2nn(-c3c(C)cccc3C)c(-c3ccc(NC(N)=O)cc3F)c2C1` [Example 1.081], the IC50 is 5 to 50 nM.
Turning to `CCc1cccc(CC)c1-n1nc2c(c1-c1cc(F)c(NC(N)=O)cc1F)CN(Cc1ccccc1)C(C)C2` (stereo not shown) [Example 1.151], the IC50 is no more than 5 nM.
The result for `Cc1cccc(OCC(C)C)c1-n1nc2c(c1-c1ccc(NC(N)=O)cc1)CN(Cc1c(F)cccc1F)CC2` [Example 1.356] reads 5 to 50 nM.
For `CCc1cccc(CC)c1-n1nc2c(c1-c1cc(F)c(NC(N)=O)cc1F)CN(CC1CCOCC1)CC2` [Example 1.019] the value was 5 to 50 nM.
In the case of `Cc1cccc(C)c1-n1nc2c(c1-c1ccc(NC(N)=O)cc1)CN(C(=O)OC(C)(C)C)CC2` [Example 1.417], the IC50 was in the range of 50 to 500 nM.
The result for `Cc1cccc(OCC(C)C)c1-n1nc2c(c1-c1ccc(NC(N)=O)cc1)CN(C(=O)OC(C)(C)C)CC2` [Example 1.439] reads 5 to 50 nM; that for `Cc1cccc(OCC(C)C)c1-n1nc2c(c1-c1cc(F)c(NC(N)=O)cc1F)CN(c1ncccc1C(C)C)CC2` [Example 1.191], no more than 5 nM; that for `Cc1cccc(C)c1-n1nc2c(c1-c1cc(F)c(NC(N)=O)cc1F)CN(CC(C)(C)O)CC2` [Example 1.086], greater than 500 nM.
Take `Cc1cccc(OCC(C)C)c1-n1nc2c(c1-c1ccc(NC(N)=O)cc1)CN(c1ccc(F)c(C(F)(F)F)c1)CC2` [Example 1.369]: the IC50 lay within 5 to 50 nM.
Take `CCc1cccc(CC)c1-n1nc2c(c1-c1ccc(NC(N)=O)c(F)c1)CN(C(C)C1CCCCC1)CC2` (stereo not shown) [Example 1.223]: the IC50 is no more than 5 nM.
The result for `CCc1cccc(CC)c1-n1nc2c(c1-c1cc(F)c(NC(N)=O)cc1F)CN(Cc1ccc(C(F)(F)F)cc1C(F)(F)F)[C@@H](C)C2` [Example 1.016] reads no more than 5 nM.
For `Cc1ccc(C(C)(C)C)cc1N1CCc2nn(-c3c(C)cccc3OCC(C)C)c(-c3ccc(NC(N)=O)cc3)c2C1` [Example 1.457] the value was no more than 5 nM; for `Cc1cccc(OCC(C)C)c1-n1nc2c(c1-c1cc(F)c(NC(N)=O)cc1F)CN(c1ccnc(C(C)C)n1)CC2` [Example 1.139], no more than 5 nM.
With `Cc1cccc(OCC(C)C)c1-n1nc2c(c1-c1cc(F)c(NC(N)=O)cc1F)CN(c1ncnc3cc[nH]c13)CC2` [Example 1.140], the IC50 was greater than 500 nM.
The result for `Cc1cccc(OCC(C)C)c1-n1nc2c(c1-c1ccc(NC(N)=O)cc1)CN(Cc1c(F)cc(C(F)(F)F)cc1C(F)(F)F)CC2` [Example 1.334] reads no more than 5 nM; that for `CCc1cccc(CC)c1-n1nc2c(c1-c1cc(F)c(NC(N)=O)cc1F)CN(C(CC)c1ccccc1)CC2` (stereo not shown) [Example 1.162], no more than 5 nM.
In the case of `CCc1cccc(CC)c1-n1nc2c(c1-c1cc(F)c(NC(N)=O)cc1F)CN(Cc1ccc(C(F)(F)F)cc1C(F)(F)F)CC2` [Example 1.077], the IC50 is no more than 5 nM.
The result for `CCc1cccc(CC)c1-n1nc2c(c1-c1cc(F)c(NC(N)=O)cc1F)CN(c1ncc(Cl)cc1Cl)[C@@H](C)C2` [Example 1.013] reads no more than 5 nM; that for `CC[C@@H](c1ccccc1)N1CCc2nn(-c3c(C)cccc3C)c(-c3ccc(NC(N)=O)cc3)c2C1` [Example 1.082], 50 to 500 nM; that for `COC(=O)CC(c1ccccc1)N1CCc2nn(-c3c(C)cccc3C)c(-c3cc(F)c(NC(N)=O)cc3F)c2C1` (stereo not shown) [Example 1.074], no more than 5 nM.
Turning to `Cc1cccc(C)c1-n1nc2c(c1-c1cc(F)c(NC(N)=O)cc1F)CN(C(CC(C)(C)O)c1ccccc1)CC2` (stereo not shown) [Example 1.071], the IC50 is 5 to 50 nM.
In the case of `CCc1cccc(CC)c1-n1nc2c(c1-c1cc(F)c(NC(N)=O)cc1F)CN(Cc1cc(Cl)ccc1Cl)CC2` [Example 1.070], the IC50 was no more than 5 nM.
The result for `Cc1cccc(C)c1-n1nc2c(c1-c1cc(F)c(NC(N)=O)cc1F)CN(c1ncccc1Cl)CC2` [Example 1.127] reads no more than 5 nM; that for `Cc1cccc(C)c1-n1nc2c(c1-c1ccc(CO)cc1)CN(c1ccccc1C(C)C)CC2` [Example 1.467], 50 to 500 nM; that for `Cc1cccc(C)c1-n1nc2c(c1-c1ccc(C(N)=O)cc1)CN(c1ncc(Cl)cc1Cl)CC2` [Example 1.109], 50 to 500 nM.
With `COc1cccc(C)c1-n1nc2c(c1-c1ccc(N)cc1)CN(c1cc(C(C)(C)C)ccc1C)CC2` [Example 1.469], the IC50 lay within 50 to 500 nM.
The result for `Cc1cccc(OCC(C)C)c1-n1nc2c(c1-c1ccc(NC(N)=O)cc1)CN(C(=O)c1ccc(C(C)(C)C)cc1)CC2` [Example 1.432] reads 50 to 500 nM; that for `CCc1cccc(CC)c1-n1nc2c(c1-c1cc(F)c(NC(N)=O)cc1F)CN(C(C)(C)c1cccc(C(F)(F)F)c1)CC2` [Example 1.163], no more than 5 nM.
For `Cc1cc(NC(N)=O)ccc1-c1c2c(nn1-c1c(C)cccc1OCC(C)C)CCN(c1ncc(C(F)(F)F)cc1F)C2` [Example 1.268] the value was 5 to 50 nM; for `Cc1cccc(OCC(C)C)c1-n1nc2c(c1-c1ccc(NC(N)=O)c(F)c1)CN(c1cc(F)cnc1F)CC2` [Example 1.251], 5 to 50 nM; for `CCc1cccc(CC)c1-n1nc2c(c1-c1cc(F)c(NC(N)=O)cc1F)CN(Cc1cc(C(F)(F)F)ccc1C(F)(F)F)C(C)(C)C2` [Example 1.011], no more than 5 nM.
For `CCc1cccc(CC)c1-n1nc2c(c1-c1ccc(NC(N)=O)cc1)CN(Cc1cc(Cl)ccc1C(F)(F)F)CC2` [Example 1.292] the value was 5 to 50 nM; for `Cc1cccc(OCC(C)C)c1-n1nc2c(c1-c1ccc(NC(N)=O)cc1)CN(CC1CCCC1)CC2` [Example 1.404], 5 to 50 nM; for `Cc1cccc(OCC(C)C)c1-n1nc2c(c1-c1ccc(NC(N)=O)cc1)CN(c1ncccc1C(F)(F)F)CC2` [Example 1.271], 5 to 50 nM.
